“Also recorded” adds a separate entry of the source.
Columns and labels:
[1] = tested on: FAM-(CUG)10 RNA; test: Gel retardation assay (fluorescence EMSA) with FAM-(CUG)10; assay type: binding
Procedure: FIG. 6. Study of the binding of some compounds of Formula I (VLT002, VLT025 and VLT026) to FAM-(CUG)10 (repeat tract present in DM1, HDL2, SCA8 diseases) by means of gel retardation assays.
Fluorescence Electrophoretic Mobility Shift Assay to test RNA-compound binding. Briefly, an aliquot of carboxyfluorescein (FAM)-CUG10 RNA (DM1, HDL2, SCA8; see FIG. 6) was heated at 70° C. for 5 min and diluted to 300 nM. The binding reaction with compounds was then carried out as described in (Garcia-Lopez A et al. Proc. Natl. Acad. Sci. USA. 108(29):11866-71 (2011)). The reaction mix was loaded onto 8% polyacrylamide nondenaturing gels, and electrophoresis was conducted at 4° C. in TB 1× for approximately 30 min at 240V, followed by fluorescence visualization. Quantification of the free RNA band intensity was carried out using the ImageJ software. A non-linear regression analysis was used to calculate EC50, based on a total of three experimental replicates. Same approach was developed with (FAM)-CCUG8 (DM2), CAG10 (SCA3), CGG10 (FXTAS), GGGGCC5 (ALS/FSD), UGGAA6 (SCA31) probes (see FIG. 9).

[2] = tested on: ribonuclear foci in MyoD transformed fibroblasts derived from DM1 patients (>300 CTG repeats); test: FISH detection of aberrant ribonuclear foci in human DM1 fibroblasts; assay type: cell-based; details: 24 h treatment, vs no treatment
Procedure: FIG. 1. Quantification of aberrant ribonuclear foci (DM1 disease hallmark) in human DM1 fibroblasts. Treatments with the compounds of Formula I were performed (VLT002, VLT015, VLT025, VLT024, VLT042, VLT040, VLT023, VLT026, VLT048, VLT045, VLT043, VLT049, VLT051 VLT053 and VLT056). (A) Number (medium) of foci/nuclei (No treatment vs. compound treatment). (B) Number of cells without foci (No treatment vs. compound treatment). n=100 minimum number of cells counted. T-Student test: * indicates p-value <0.05 ** p-value p<0.005 *** p-value p<0.0005.
After screening identification of the compounds of the invention (see FIG. 10), main validation was done using Fluorescence In Situ Hybridization (FISH) detection of aberrant aggregation of ribonuclear foci in cell lines from DM1 patients (see FIG. 1) and in DM1 Drosophila model (see FIG. 2) (Garcia-Lopez et al., Proc. Natl. Acad. Sci. USA. 108(29):11866-71 (2011)). Briefly, regarding human cells, it was used MyoD transformed fibroblasts derived from clinically diagnosed DM1 patients (>300 CTG repeats) routinely growing in DMEM supplemented with 10% heat-inactivated fetal bovine serum and maintained at 37° C. in a humidified incubator containing 5% CO2. To detect ribonuclear foci, cells were cultured over cover-slides in flat bottomed 24-well plates, after 24 h compounds of the invention were added to the cells at desiderate concentration, 24 h later in situ hybridization was done by fixing with 4% paraformaldehyde (PFA) 15 min at room temperature, and washed and stored in 70% ethanol. Cells were rehydrated with PBS and pre-hybridized 10 min at room temperature with a pre-hybridization buffer (formamide 30%, 2× saline-sodium citrate buffer (SSC)). Hybridization was performed in a light-proof wet chamber using the same pre-hybridization buffer supplemented with 0.02% bovine serum albumin (BSA), 1 mg/ml yeast tRNA (Sigma), 2 mM sodium (meta)vanadate, 1 mg/ml sperm DNA, 10% dextran sulfate and 1 ng/μl RNase free HPCL-purified Cy3-labeled (CAG)10 RNA. After hybridization cells were washed 2×15 minutes at 45° C. with the pre-hybridization buffer and washed with 1×PBS at room temperature. Slides were mounted with Vectashield solution with DAPI and number of foci by cell and number of cells with/without foci (see FIG. 1) were counted in a minimum of 100 cells for each treatment and concentration tested with a 63× objective in a Leica microscope. Same FISH approach was performed in Drosophila DM1 flies, where thoraces were embedded in OCT and transversal sections were taken with a Leica CM 15105 cryomicrotome. Sections were processed for in situ hybridization and counting for number of foci by cell with the same Cy3-labeled (CAG)10 probe (see FIG. 2).

[3] = tested on: MBNL1; test: Visualization and quantification of MBNL1 release in DM1 fibroblasts; assay type: cell-based, human; details: 100 μM
Procedure: FIG. 4. Visualization and quantification of MBNL1 release (A). Visualization of MBNL1 release for VLT002: Upper row: Untreated DM1 fibroblasts with MBNL1 localizing as ribonuclear foci (see dots in middle and right pictures) to the nucleus (DAPI, detected as gray spherical shadow in left and right pictures). […] (B) Quantification of the area (into the nucleus), where MBNL1 present (Photoshop software), reflects the MBNL1 release after VLT002, VLT025, VLT045, VLT049 and VLT040 treatment (100 μM).
At the same time human cells were recollected for foci counting. Some (150,000-300,000) were prepared for Muscleblind (MBNL1) detection (see FIG. 4). After PBS washes, cells were probed overnight, at 4° C. with anti-MBNL1 antibody (1:5000 dilutions, A2764 antibody) in 1×PBS. After washing cells with 1×PBS, cells were incubated with goat anti-rabbit Alexa 488 (1:500 dilution) for 2 h at RT. Cells were washed 2 times, for 10 min at room temperature with 1×PBS and then mounted onto glass slides using a hard-set mounting media that contains DAPI (Vectashield). Cells were imaged on a Leica microscope.

Row | SMILES | binding to FAM-CUG10 [1] | aberrant ribonuclear foci: number of foci/nuclei (A) and/or number of cells without foci (B) [2] | MBNL1 sequestration / MBNL1 release (nuclear area where MBNL1 present) [3] | formation of foci (MBNL1 ribonuclear foci) [3]
1 | CN(C)CCc1cc2c(c3c1ccc1ccccc13)OCO2 [VLT002, Stephenanthrine] | bind to FAM-CUG10 | significant reduction | MBNL1 sequestration is relieved; also recorded: relieve MBNL1 sequestration | reduced formation of the foci; also recorded: effectively reduce the formation of foci
2 | C[N+](C)(C)CCc1cc2c(c3c1ccc1ccccc13)OCO2 [VLT025] | bind to FAM-CUG10 | significant reduction | relieve MBNL1 sequestration | effectively reduce the formation of foci
